Assay results: US9249111B2, “Substituted quinoxalines as B-RAF kinase inhibitors” (NEUPHARMA, INC., priority 2011, dated 2016)

Columns and labels:
[1] = test system: A375 cells; assay: MTT cell growth inhibition assay, A375 cells; format: cell-based; details: Homo sapiens, A-375, 72 h compound exposure
Experimental: (§1) Inhibition of cell growth by compounds was measured using MTT assay (Mosmann, T., Journal of Immunological Methods, 1983, 65, 55-63). Tumor cell lines were purchased from ATCC (American Type Culture Collection, Manassas, Va.). All cell lines were maintained in RPMI 1640 (Hyclone) supplemented with 10% fetal bovine serum (FBS, Hyclone), glutamine (2 mM, Hyclone), and antibiotics (penicillin 100 U/mL and streptomycin 50 μg/mL) at 37° C. in a humidified atmosphere of 5% CO2 in air. Taxol (as a positive control, Sigma) and compounds were dissolved in DMSO (Sigma), and the final concentration of DMSO in the medium was 1%. Tumor cells were plated in 96-well plates at densities of about 4000 cells/well of a 96-well plate and allowed to adhere/grow for 24 h. They were then treated with various concentrations of drug for 72 h. 3-(4,5-Dimethylthiazol-2-yl)-2,5-diphenyltetrazolium bromide (MTT, Sigma) was used to determine the number of viable cells at the time of compound addition and the number of cells remaining after 72 h compound exposure. The number of cells remaining after 72 h was compared to the number of viable cells at the time of compound addition by measuring the absorbance at 570 nm, allowing for the calculation of growth inhibition.
(§2) All concentrations of compounds were tested in triplicate and controls were averaged over 4 wells. IC50 was calculated by plotting the concentration of compound vs the percentage of inhibition in treated wells using GraphPad Prism 5. […] The scale utilized in Table 2 is as follows: […], ++ between 1000 and 5000 nM, and + greater than 5000 nM.

[2] = target: T1, BRAF V600E (Homo sapiens, UniProt P15056, V600E); assay: Z'-LYTE kinase inhibition assay (Invitrogen), BRAF V600E; format: biochemical; details: Z'-LYTE method; for inhibition at 1 µM: compound at 1 μM
T1 construct: purchased Invitrogen
Experimental: (§3) Inhibitory activities of compounds against BRAF or BRAF V600E were measured by Invitrogen using Z′-LYTE® Method as briefly described in the following.
(§4) 4× Test compounds were dissolved in 1% DMSO. […] ATP solutions were diluted to a 4×ATP working concentration in Kinase Buffer (50 mM HEPES pH 7.5, 0.01% BRIJ-35, 10 mM MgCl2, 1 mM EGTA). Reaction started by 30-second shaking of mixture consisting of 2.5 μL4× test compound, 2.5 μL 2× kinase reaction mixture and 2.5 μL 4×ATP Solution on Bar-coded Corning, low volume NBS, black 384-well plate (Corning Cat. #3676). Then the mixture was incubated for 60-minute at room temperature for the kinase reaction, followed by addition of 5 μL of a 1:1024 dilution of development reagent A and 30-second plate shake. The mixture was then incubated for another 60-minute at room temperature for development reaction. Finally fluorescence was read by plate reader. IC50 was calculated by plotting the concentration of compound vs the percentage of inhibition in treated wells using GraphPad Prism 5.

[3] = test system: A549 cells; assay: MTT cell growth inhibition assay, A549 cells; format: cell-based; details: Homo sapiens, 72 h compound exposure
Experimental: as §1, §2

[4] = target: T2, BRAF (Homo sapiens, UniProt P15056); assay: Z'-LYTE kinase inhibition assay (Invitrogen), BRAF; format: biochemical; details: compound at 1 μM; Z'-LYTE method
T2 construct: purchased Invitrogen
Experimental: as §3, §4

T2 sequence (P15056 whole entry): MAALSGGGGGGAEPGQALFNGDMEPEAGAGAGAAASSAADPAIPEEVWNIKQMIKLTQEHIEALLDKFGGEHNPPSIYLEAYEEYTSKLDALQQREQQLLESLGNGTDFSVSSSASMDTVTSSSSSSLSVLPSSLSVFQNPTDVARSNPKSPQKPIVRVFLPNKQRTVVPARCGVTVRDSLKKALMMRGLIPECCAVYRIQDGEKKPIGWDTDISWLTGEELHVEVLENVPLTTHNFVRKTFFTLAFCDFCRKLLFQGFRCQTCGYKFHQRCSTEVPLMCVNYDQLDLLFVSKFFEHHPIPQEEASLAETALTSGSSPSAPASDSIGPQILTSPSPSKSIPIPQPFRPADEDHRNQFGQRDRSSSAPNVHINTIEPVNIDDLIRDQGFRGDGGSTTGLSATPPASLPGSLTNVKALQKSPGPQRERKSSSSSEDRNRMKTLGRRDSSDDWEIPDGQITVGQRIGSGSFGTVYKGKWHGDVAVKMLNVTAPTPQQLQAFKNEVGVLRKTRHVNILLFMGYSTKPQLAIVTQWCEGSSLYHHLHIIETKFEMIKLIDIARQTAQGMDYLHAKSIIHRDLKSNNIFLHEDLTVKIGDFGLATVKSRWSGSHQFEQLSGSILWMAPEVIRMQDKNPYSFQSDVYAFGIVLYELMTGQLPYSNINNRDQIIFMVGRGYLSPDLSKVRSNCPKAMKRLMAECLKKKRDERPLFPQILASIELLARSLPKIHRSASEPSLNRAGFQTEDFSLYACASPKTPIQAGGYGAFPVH
T1 sequence (P15056 whole entry V600E): as the sequence (P15056 whole entry) above, with V600E counted along it

IC50 [1] [nM] | inhibition at 1 µM [2] [%] | IC50 [3] [nM] | inhibition at 1 µM [4] [%] | IC50 ([2]; read-out: IC50 against BRAF V600E) [nM] | Compound
1000 to 5000 |  | 1000 to 5000 |  |  | N#Cc1cnc2ccc(C(=O)c3c(F)ccc(O)c3F)cc2n1 [Compound C09, 7-(2,6-difluoro-3-hydroxybenzoyl)quinoxaline-2-carbonitrile]
< 1000 |  | 1000 to 5000 |  |  | O=C(c1ccc2ncc(-c3ccccc3)nc2c1)c1c(F)ccc(O)c1F [Compound C08, (2,6-difluoro-3-hydroxyphenyl)(3-phenylquinoxalin-6-yl)methanone]
< 1000 |  | 1000 to 5000 |  |  | O=C(c1ccc2ncc(Cl)nc2c1)c1c(F)ccc(O)c1F [Compound C05, (3-chloroquinoxalin-6-yl)(2,6-difluoro-3-hydroxyphenyl)methanone]
< 1000 | > 89 | < 1000 | 30 to 89 | < 50 | O=C(c1ccc2nccnc2c1)c1c(F)ccc(OCc2ccccc2)c1F [Compound C06, (3-(benzyloxy)-2,6-difluorophenyl)(quinoxalin-6-yl)methanone]
1000 to 5000 |  | 1000 to 5000 |  |  | O=C(c1ccc2ncc(-c3cccnc3)nc2c1)c1c(F)ccc(O)c1F [Compound C07, (2,6-difluoro-3-hydroxyphenyl)(3-(pyridin-3-yl)quinoxalin-6-yl)methanone]
1000 to 5000 |  | 1000 to 5000 |  |  | COc1cnc2ccc(C(=O)c3c(F)ccc(O)c3F)cc2n1 [Compound C10, (2,6-difluoro-3-hydroxyphenyl)(3-methoxyquinoxalin-6-yl)methanone]

The remaining lines, values behind:

Compound | IC50 [1] [nM] | inhibition at 1 µM [2] [%] | IC50 [3] [nM] | inhibition at 1 µM [4] [%] | IC50 ([2]; read-out: IC50 against BRAF V600E) [nM]
O=C(c1ccc2nccnc2c1)c1c(F)ccc(OCc2cccc(F)c2)c1F [Compound C01, (2,6-difluoro-3-((3-fluorobenzyl)oxy)phenyl)(quinoxalin-6-yl)methanone] | > 5000 | 30 to 89 | > 5000 | 30 to 89 | 
COc1ccc(F)c(C(=O)c2ccc3nccnc3c2)c1F [Compound C04, (2,6-difluoro-3-methoxyphenyl)(quinoxalin-6-yl)methanone] | 1000 to 5000 | 30 to 89 | 1000 to 5000 | < 30 | 
O=C(c1ccc2nccnc2c1)c1c(F)ccc(O)c1F [Compound C03, (2,6-difluoro-3-hydroxyphenyl)(quinoxalin-6-yl)methanone] | < 1000 |  | 1000 to 5000 |  | 
O=C(c1ccc2nccnc2c1)c1c(F)ccc(OCc2cccc(Cl)c2)c1F [Compound C02, (3-((3-chlorobenzyl)oxy)-2,6-difluorophenyl)(quinoxalin-6-yl)methanone] | > 5000 | 30 to 89 | > 5000 | 30 to 89 | 
